{
  "source": "paper PMC4281103",
  "about": "(Journal of Medicinal Chemistry, 2014)",
  "key": {"male Sprague–Dawley rats [1]": {"system": "male Sprague–Dawley rats", "conditions": "rat, in vivo; cited from earlier work"}, "human μ-opioid receptor": {"target": "human μ-opioid receptor (Homo sapiens, UniProt P35372)", "sequence (P35372 whole entry)": "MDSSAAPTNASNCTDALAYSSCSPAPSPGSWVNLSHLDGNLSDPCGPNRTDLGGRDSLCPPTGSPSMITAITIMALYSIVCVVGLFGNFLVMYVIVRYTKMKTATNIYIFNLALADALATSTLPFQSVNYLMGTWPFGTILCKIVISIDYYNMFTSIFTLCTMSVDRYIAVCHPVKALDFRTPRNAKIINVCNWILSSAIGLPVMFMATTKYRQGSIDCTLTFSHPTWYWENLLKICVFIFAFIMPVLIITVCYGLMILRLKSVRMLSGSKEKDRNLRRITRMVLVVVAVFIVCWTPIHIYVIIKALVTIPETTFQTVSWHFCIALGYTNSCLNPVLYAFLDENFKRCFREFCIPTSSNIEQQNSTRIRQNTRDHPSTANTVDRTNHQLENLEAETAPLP", "assay": "Inhibition of forskolin-induced cAMP accumulation in MOR-CHO cells", "assay_type": "cell-based", "conditions": "selectivity for KOR"}, "male Sprague–Dawley rats [2]": {"system": "male Sprague–Dawley rats", "assay": "Rat reinstatement assay: cocaine-prime-induced reinstatement of drug seeking", "assay_type": "in vivo", "conditions": "for inactive lever pressing during self-administration, extinction and reinstatement: 2 1.0 mg/kg, 24 1.0 mg/kg, 36 0.3 mg/kg; for dose required to significantly reduce active lever responses: ip, cocaine-prime-induced reinstatement, rat"}, "male Sprague–Dawley rats [3]": {"system": "male Sprague–Dawley rats", "assay": "Rat spontaneous locomotor activity", "assay_type": "in vivo", "conditions": "acute ip; 2 1.0 mg/kg, 24 1.0 mg/kg, 36 0.3 mg/kg; total ambulatory counts over 60 min"}, "human κ-opioid receptor": {"target": "human κ-opioid receptor (Homo sapiens, UniProt P41145)", "sequence (P41145 whole entry)": "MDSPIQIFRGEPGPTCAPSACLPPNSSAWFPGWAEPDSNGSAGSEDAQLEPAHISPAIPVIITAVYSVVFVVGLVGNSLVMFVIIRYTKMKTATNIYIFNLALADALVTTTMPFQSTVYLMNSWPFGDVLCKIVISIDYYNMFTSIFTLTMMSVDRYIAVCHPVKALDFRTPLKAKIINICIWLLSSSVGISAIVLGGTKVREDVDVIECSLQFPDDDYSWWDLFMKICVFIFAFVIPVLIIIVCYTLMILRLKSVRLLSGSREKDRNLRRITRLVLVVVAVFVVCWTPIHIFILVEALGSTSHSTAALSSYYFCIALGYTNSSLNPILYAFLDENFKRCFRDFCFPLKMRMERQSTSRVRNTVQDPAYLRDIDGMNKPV", "assay_type": "cell-based"}},
  "data": [
    {"smiles": "COC(=O)[C@@H]1C[C@H](OC(C)=O)C(=O)[C@H]2[C@@]1(C)CC[C@H]1C(=O)O[C@H](c3ccoc3)C[C@]21C", "note": "[Compound 1, Salvinorin A]", "values": [
      {"measurement": "effect on drug-seeking behavior and spontaneous locomotor activity", "setting": "male Sprague–Dawley rats [1]", "result": "reduces drug-seeking behavior at a dose that does not affect spontaneous locomotor activity"}
    ]},
    {"smiles": "COC(=O)[C@@H]1C[C@H](OC(C)=O)C(=O)[C@H]2[C@@]1(C)CC[C@H]1C(=O)O[C@H](c3ccoc3Br)C[C@]21C", "note": "[Compound 2]", "values": [
      {"measurement": "activity at the MOR", "setting": "human μ-opioid receptor", "result": "no activity at the MOR"},
      {"measurement": "inactive lever pressing during self-administration, extinction and reinstatement", "setting": "male Sprague–Dawley rats [2]", "result": "no significant changes"},
      {"measurement": "dose required to significantly reduce active lever responses", "setting": "male Sprague–Dawley rats [2]", "result": 0.3, "unit": "mg/kg"},
      {"measurement": "effect on spontaneous locomotor activity vs vehicle-treated animals", "setting": "male Sprague–Dawley rats [3]", "result": "no significant difference"}
    ]},
    {"smiles": "COC(=O)[C@@H]1C[C@H](OC(C)=O)C(=O)[C@H]2[C@@]1(C)CC[C@H]1C(=O)O[C@H](c3ccoc3C)C[C@]21C", "note": "[Compound 24]", "values": [
      {"measurement": "activity at the MOR", "setting": "human μ-opioid receptor", "result": "no activity at the MOR"},
      {"measurement": "inactive lever pressing during self-administration, extinction and reinstatement", "setting": "male Sprague–Dawley rats [2]", "result": "no significant changes"},
      {"measurement": "effect on spontaneous locomotor activity vs vehicle-treated animals", "setting": "male Sprague–Dawley rats [3]", "result": "no significant difference"}
    ]},
    {"smiles": "C#Cc1occc1[C@@H]1C[C@]2(C)[C@H]3C(=O)[C@@H](OC(C)=O)C[C@@H](C(=O)OC)[C@]3(C)CC[C@H]2C(=O)O1", "note": "[Compound 36]", "values": [
      {"measurement": "activity at the MOR", "setting": "human μ-opioid receptor", "result": "no activity at the MOR"},
      {"measurement": "inactive lever pressing during self-administration, extinction and reinstatement", "setting": "male Sprague–Dawley rats [2]", "result": "no significant changes"},
      {"measurement": "dose required to significantly reduce active lever responses", "setting": "male Sprague–Dawley rats [2]", "result": 0.1, "unit": "mg/kg"},
      {"measurement": "effect on spontaneous locomotor activity vs vehicle-treated animals", "setting": "male Sprague–Dawley rats [3]", "result": "no significant difference"}
    ]},
    {"smiles": "COC(=O)[C@@H]1C[C@H](OC(C)=O)C(=O)[C@H]2[C@@]1(C)CC[C@H]1C(=O)O[C@H](c3ccoc3C=O)C[C@]21C", "note": "[Compound 49, (2S,4aR,6aR,7R,9S,10aS,10bR)-Methyl 9-Acetoxy-2-(2-formylfuran-3-yl)-6a,10b-dimethyl-4,10-dioxododecahydro-1H-benzo[f]isochromene-7-carboxylate]", "values": [
      {"measurement": "times less potent than 29 (KOR)", "setting": "human κ-opioid receptor", "result": "approximately 7 times"}
    ]},
    {"smiles": "COC(=O)[C@@H]1C[C@H](OC(C)=O)C(=O)[C@H]2[C@@]1(C)CC[C@H]1C(=O)O[C@H](c3ccoc3C#N)C[C@]21C", "note": "[Compound 50, (2S,4aR,6aR,7R,9S,10aS,10bR)-Methyl 9-Acetoxy-2-(2-cyanofuran-3-yl)-6a,10b-dimethyl-4,10-dioxododecahydro-1H-benzo[f]isochromene-7-carboxylate]", "values": [
      {"measurement": "times less potent than 36 (KOR)", "setting": "human κ-opioid receptor", "result": "more than 500 times"}
    ]}
  ]
}
